Laboratory results taken from US9669034B2, “4-aryl-N-phenyl-1,3,5-triazin-2-amines containing a sulfoximine group” (BAYER INTELLECTUAL PROPERTY GMBH, priority 2011, dated 2017).
pIC50: −log10 of the molar value. Read-outs that look alike come from different tables or passages of the source.

What was measured:
CDK2/CycE = CDK2/CycE (Homo sapiens (Human), UniProt P24941); experiment: CDK2/CycE kinase assay (TR-FRET); assay type: biochemical; settings: Method 2; for IC50: unit cell empty (table: nM or μM)
Excerpt: 2. CDK2/CycE Kinase Assay:
CDK2/CycE—inhibitory activity of compounds of the present invention was quantified employing the CDK2/CycE TR-FRET assay as described in the following paragraphs:
Recombinant fusion proteins of GST and human CDK2 and of GST and human CycE, expressed in insect cells (Sf9) and purified by Glutathion-Sepharose affinity chromatography, were purchased from ProQinase GmbH (Freiburg, Germany). As substrate for the kinase reaction biotinylated peptide biotin-Ttds-[…]

CDK9/CycT1 = CDK9/CycT1 (Homo sapiens (Human), UniProt P50750); experiment: CDK9/CycT1 kinase assay (TR-FRET); assay type: biochemical; settings: Method 1; for IC50: unit cell empty (table: nM or μM)
Sequence of CDK9/CycT1 (P50750 whole entry): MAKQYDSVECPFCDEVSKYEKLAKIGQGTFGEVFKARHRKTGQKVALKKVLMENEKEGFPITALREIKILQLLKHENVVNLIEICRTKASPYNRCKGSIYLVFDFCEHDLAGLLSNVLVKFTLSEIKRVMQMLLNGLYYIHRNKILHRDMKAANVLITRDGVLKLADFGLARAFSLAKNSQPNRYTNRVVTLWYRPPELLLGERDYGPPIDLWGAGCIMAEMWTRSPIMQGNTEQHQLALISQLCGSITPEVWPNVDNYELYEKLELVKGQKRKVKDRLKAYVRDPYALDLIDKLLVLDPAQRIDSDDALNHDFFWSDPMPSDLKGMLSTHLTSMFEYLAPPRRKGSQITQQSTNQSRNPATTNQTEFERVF
Sequence of CDK9/CycT1 (O60563 whole entry partner): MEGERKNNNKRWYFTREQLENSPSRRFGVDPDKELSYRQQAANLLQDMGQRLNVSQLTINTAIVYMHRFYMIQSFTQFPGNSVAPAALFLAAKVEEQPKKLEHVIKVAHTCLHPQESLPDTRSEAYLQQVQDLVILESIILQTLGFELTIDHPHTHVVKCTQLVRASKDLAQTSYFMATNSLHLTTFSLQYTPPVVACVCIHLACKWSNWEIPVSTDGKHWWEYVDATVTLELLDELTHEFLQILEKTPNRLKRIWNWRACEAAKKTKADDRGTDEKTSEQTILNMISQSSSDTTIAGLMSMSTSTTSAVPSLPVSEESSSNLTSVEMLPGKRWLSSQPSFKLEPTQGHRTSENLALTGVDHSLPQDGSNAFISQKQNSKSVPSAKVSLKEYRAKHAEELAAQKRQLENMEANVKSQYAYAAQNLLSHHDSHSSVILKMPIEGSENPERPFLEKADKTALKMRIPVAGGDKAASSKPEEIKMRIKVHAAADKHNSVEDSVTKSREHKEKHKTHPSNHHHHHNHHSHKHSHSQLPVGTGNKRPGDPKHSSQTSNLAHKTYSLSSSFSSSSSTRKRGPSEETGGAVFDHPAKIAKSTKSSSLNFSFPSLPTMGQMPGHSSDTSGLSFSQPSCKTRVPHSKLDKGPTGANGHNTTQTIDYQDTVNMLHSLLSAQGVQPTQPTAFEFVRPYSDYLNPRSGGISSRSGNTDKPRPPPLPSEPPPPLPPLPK
Excerpt: 1. CDK9/CycT1 Kinase Assay:
CDK9/CycT1—inhibitory activity of compounds of the present invention was quantified employing the CDK9/CycT1 TR-FRET assay as described in the following paragraphs:
Recombinant full-length His-tagged human CDK9 and CycT1, expressed in insect cells and purified by Ni-NTA affinity chromatography, were purchased from Invitrogen (Cat. No PV4131). As substrate for the kinase reaction biotinylated peptide biotin-Ttds-[…]

[1] = tested on: HeLa human cervical tumour cells; experiment: Proliferation assay (crystal violet), HeLa; assay type: cell-based; settings: Method 3, read-out: Inhibition of HeLa cell proliferation, IC50
Protocol: Cultivated tumour cells (NCI-H460, human non-small cell lung carcinoma cells, ATCC HTB-177; DU145, hormone-independent human prostate carcinoma cells, ATCC HTB-81; HeLa-MaTu, human cervical carcinoma cells, EPO-GmbH, Berlin; HeLa-MaTu-ADR, multidrug-resistant human cervical carcinoma cells, EPO-GmbH, Berlin; HeLa human cervical tumour cells, ATCC CCL-2; Caco-2 human colorectal carcinoma, ATCC HTB-37; B16F10 mouse melanoma cells, ATCC CRL-6475) were plated at a density of 5000 cells/well (DU145, HeLa-MaTu-ADR), 3000 cells/well (NCI-H460, HeLa-MaTu, HeLa), 1500 cells/well (Caco-2), or 1000 cells/well (B16 F10) in a 96-well multititer plate in 200 μL of their respective growth medium supplemented 10% fetal calf serum. After 24 hours, the cells of one plate (zero-point plate) were stained with crystal violet (see below), while the medium of the other plates was replaced by fresh culture medium (200 μL), to which the test substances were added in various concentrations (0 M, as well as in the range of […]; the final concentration of the solvent dimethylsulfoxide was 0.5%). The cells were incubated for 4 days in the presence of test substances. Cell proliferation was determined by staining the cells with crystal violet: the cells were fixed by adding 20 μL/measuring point of an 11% glutaric aldehyde solution for 15 minutes at room temperature. After three washing cycles of the fixed cells with water, the plates were dried at room temperature. The cells were stained by adding 100 μL/measuring point of a 0.1% crystal violet solution (pH 3.0). After three washing cycles of the stained cells with water, the plates were dried at room temperature. The dye was dissolved by adding 100 μL/measuring point of a 10% acetic acid solution. The absorbance was determined by photometry at a wavelength of 595 nm. The change of cell number, in percent, was calculated by normalization of the measured values to the absorbance values of the zero-point plate (=0%) and the absorbance of the untreated (0 M) cells (=100%). The IC50 values were determined by means of a 4 parameter fit.

Row | SMILES | pIC50 (CDK2/CycE) | pIC50 (CDK9/CycT1) | pIC50 ([1]; Homo sapiens, HeLa) | IC50 (CDK2/CycE) [nM] | IC50 (CDK9/CycT1) [nM] | pIC50 [1]
1 | CCS(=N)(=O)Cc1cccc(Nc2ncnc(-c3ccc(F)cc3OC)n2)c1 (racemic) [Example 108, (rac)-N-{3-[(S-ethylsulfonimidoyl)methyl]phenyl}-4-(4-fluoro-2-methoxyphenyl)-1,3,5-triazin-2-amine] | 6.00 | 8.10 | 6.00 |  |  | 
2 | COc1cc(F)ccc1-c1ncnc(Nc2ccc(Cl)c(CS(C)(=N)=O)c2)n1 (racemic) [Example 59, (rac)-N-{4-Chloro-3-[(S-methylsulfonimidoyl)methyl]phenyl}-4-(4-fluoro-2-methoxyphenyl)-1,3,5-triazin-2-amine] | 5.85 | 7.59 | 6.07 |  |  | 
3 | CCS(=N)(=O)Cc1cccc(Nc2ncnc(-c3ccc(F)cc3OC)n2)c1 (single isomer, unassigned) [Example 110, N-{3-[(S-ethylsulfonimidoyl)methyl]phenyl}-4-(4-fluoro-2-methoxyphenyl)-1,3,5-triazin-2-amine] |  |  |  | 1100 | 9 | 
4 | COc1cc(F)ccc1-c1ncnc(Nc2ccc(Cl)c(CS(C)(=N)=O)c2)n1 (single isomer, unassigned) [Example 59.b, N-{4-Chloro-3-[(S-methylsulfonimidoyl)methyl]phenyl}-4-(4-fluoro-2-methoxyphenyl)-1,3,5-triazin-2-amine] | 5.74 | 7.48 |  |  |  | 5.96
5 | CCS(=N)(=O)Cc1cccc(Nc2ncnc(-c3ccc(F)cc3OC)n2)c1 (single isomer, unassigned) [Example 109, N-{3-[(S-ethylsulfonimidoyl)methyl]phenyl}-4-(4-fluoro-2-methoxyphenyl)-1,3,5-triazin-2-amine] |  |  |  | 780 | 24 | 
6 | CS(=N)(=O)Cc1cccc(Nc2ncnc(-c3ccc(F)cc3OCc3ccccn3)n2)c1 (racemic) [Example 67, (rac)-4-[4-Fluoro-2-(pyridin-2-ylmethoxy)phenyl]-N-{3-[(S-methylsulfonimidoyl)methyl]phenyl}-1,3,5-triazin-2-amine] | 5.16 | 7.01 |  |  |  | 
7 | CS(=N)(=O)Cc1cccc(Nc2ncnc(-c3cccc4c3OCC4)n2)c1 (racemic) [Example 34, (rac)-4-(2,3-Dihydro-1-benzofuran-7-yl)-N-{3-[(S-methylsulfonimidoyl)methyl]phenyl}-1,3,5-triazin-2-amine] | 5.66 | 7.17 |  |  |  | 
8 | CCOC(=O)N=S(C)(=O)Cc1cccc(Nc2ncnc(-c3cccc4c3OCC4)n2)c1 (racemic) [Example 33, (rac)-Ethyl [(3-{[4-(2,3-dihydro-1-benzofuran-7-yl)-1,3,5-triazin-2-yl]amino}benzyl)(methyl)oxido-λ^6-sulfanylidene]carbamate] | 5.51 | 7.68 |  |  |  | 
9 | CS(=N)(=O)Cc1cccc(Nc2ncnc(-c3ccc(F)cc3OCc3ccccc3)n2)c1 (racemic) [Example 6, (rac)-4-[2-(Benzyloxy)-4-fluorophenyl]-N-{3-[(S-methylsulfonimidoyl)methyl]phenyl}-1,3,5-triazin-2-amine] | 6.66 | 8.52 |  |  |  | 
10 | CS(=N)(=O)Cc1cccc(Nc2ncnc(-c3ccc(F)cc3OCCC(F)(F)F)n2)c1 (racemic) [Example 65, (rac)-4-[4-Fluoro-2-(3,3,3-trifluoropropoxy)phenyl]-N-{3-[(S-methylsulfonimidoyl)methyl]phenyl}-1,3,5-triazin-2-amine] | 5.22 | 7.10 |  |  |  | 
11 | COc1cc(Cl)ccc1-c1ncnc(Nc2cccc(CS(C)(=N)=O)c2)n1 (single isomer, unassigned) [Example 14, 4-(4-Chloro-2-methoxyphenyl)-N-{3-[(S-methylsulfonimidoyl)methyl]phenyl}-1,3,5-triazin-2-amine] | 4.89 | 6.80 |  |  |  | 
12 | CCOC(=O)N=S(C)(=O)Cc1cccc(Nc2ncnc(-c3cc(F)ccc3OC)n2)c1 (racemic) [Example 20, (rac)-Ethyl [(3-{[4-(5-fluoro-2-methoxyphenyl)-1,3,5-triazin-2-yl]amino}benzyl)(methyl)oxido-λ^6-sulfanylidene]carbamate] | 5.70 | 7.66 |  |  |  | 
13 | COc1ccccc1-c1ncnc(Nc2cccc(CS(C)(=N)=O)c2)n1 (racemic) [Example 26, (rac)-4-(2-Methoxyphenyl)-N-{3-[(S-methylsulfonimidoyl)methyl]phenyl}-1,3,5-triazin-2-amine] | 5.34 | 7.46 |  |  |  | 

Continued by rising pIC50 (CDK2/CycE), values first:

Row | pIC50 (CDK2/CycE) | pIC50 (CDK9/CycT1) | pIC50 ([1]; Homo sapiens, HeLa) | IC50 (CDK2/CycE) [nM] | IC50 (CDK9/CycT1) [nM] | pIC50 [1] | SMILES
14 | 4.96 | 6.92 |  |  |  |  | CCOC(=O)N=S(C)(=O)Cc1cccc(Nc2ncnc(-c3cc(F)ccc3OCC3CCOCC3)n2)c1 (racemic) [Example 46, (rac)-Ethyl {[3-({4-[5-fluoro-2-(tetrahydro-2H-pyran-4-ylmethoxy)phenyl]-1,3,5-triazin-2-yl}amino)benzyl](methyl)oxido-λ^6-sulfanylidene}carbamate]
15 | 5.08 | 6.43 |  |  |  |  | CS(=N)(=O)Cc1cccc(Nc2ncnc(-c3ccc(F)cc3OCCC3CCOCC3)n2)c1 (racemic) [Example 57, (rac)-4-{4-Fluoro-2-[2-(tetrahydro-2H-pyran-4-yl)ethoxy]phenyl}-N-{3-[(S-methylsulfonimidoyl)methyl]phenyl}-1,3,5-triazin-2-amine]
16 | 5.23 | 7.05 |  |  |  |  | COc1ccccc1-c1ncnc(Nc2cccc(CS(C)(=N)=O)c2)n1 (single isomer, unassigned) [Example 28, 4-(2-Methoxyphenyl)-N-{3-[(S-methylsulfonimidoyl)methyl]phenyl}-1,3,5-triazin-2-amine]
17 | 5.26 | 7.64 |  |  |  |  | CCOC(=O)N=S(C)(=O)Cc1cccc(Nc2ncnc(-c3ccc(Cl)cc3OC)n2)c1 (racemic) [Example 11, (rac)-Ethyl [(3-{[4-(4-chloro-2-methoxyphenyl)-1,3,5-triazin-2-yl]amino}benzyl)(methyl)oxido-λ^6-sulfanylidene]carbamate]
18 | 5.49 | 7.52 | 5.96 |  |  |  | CS(=N)(=O)Cc1cccc(Nc2ncnc(-c3ccc(F)cc3OCCC3CC3)n2)c1 (racemic) [Example 76, (rac)-4-[2-(2-Cyclopropylethoxy)-4-fluorophenyl]-N-{3-[(S-methylsulfonimidoyl)methyl]phenyl}-1,3,5-triazin-2-amine]
19 | 5.54 | 7.60 | 5.96 |  |  |  | COc1cc(F)ccc1-c1ncnc(Nc2ccc(Cl)c(CS(C)(=N)=O)c2)n1 (single isomer, unassigned) [Example 59.a, N-{4-Chloro-3-[(S-methylsulfonimidoyl)methyl]phenyl}-4-(4-fluoro-2-methoxyphenyl)-1,3,5-triazin-2-amine]
20 | 5.80 | 7.62 | 5.77 |  |  |  | CS(=N)(=O)Cc1cccc(Nc2ncnc(-c3ccc(F)cc3OCc3cccnc3)n2)c1 (racemic) [Example 66, (rac)-4-[4-Fluoro-2-(pyridin-3-ylmethoxy)phenyl]-N-{3-[(S-methylsulfonimidoyl)methyl]phenyl}-1,3,5-triazin-2-amine]
21 | 6.00 | 7.89 | 6.14 |  |  |  | CS(=N)(=O)Cc1cccc(Nc2ncnc(-c3ccc(F)cc3OCc3ccc(F)c(F)c3)n2)c1 (racemic) [Example 80, (rac)-4-{2-[(3,4-Difluorobenzyl)oxy]-4-fluorophenyl}-N-{3-[(S-methylsulfonimidoyl)methyl]phenyl}-1,3,5-triazin-2-amine]
22 | 6.03 |  | 5.92 |  |  |  | CS(=N)(=O)Cc1cccc(Nc2ncnc(-c3cccc4c3OCCC4)n2)c1 (racemic) [Example 30, (rac)-4-(3,4-Dihydro-2H-chromen-8-yl)-N-{3-[(S-methylsulfonimidoyl)methyl]phenyl}-1,3,5-triazin-2-amine]
